{
  "source": "paper PMC3152580",
  "about": "(Journal of the American Chemical Society, 2011)",
  "biological_target": "E. coli Alkaline Phosphatase (AP) (Escherichia coli, UniProt P00634)",
  "sequence (P00634 22-471)": "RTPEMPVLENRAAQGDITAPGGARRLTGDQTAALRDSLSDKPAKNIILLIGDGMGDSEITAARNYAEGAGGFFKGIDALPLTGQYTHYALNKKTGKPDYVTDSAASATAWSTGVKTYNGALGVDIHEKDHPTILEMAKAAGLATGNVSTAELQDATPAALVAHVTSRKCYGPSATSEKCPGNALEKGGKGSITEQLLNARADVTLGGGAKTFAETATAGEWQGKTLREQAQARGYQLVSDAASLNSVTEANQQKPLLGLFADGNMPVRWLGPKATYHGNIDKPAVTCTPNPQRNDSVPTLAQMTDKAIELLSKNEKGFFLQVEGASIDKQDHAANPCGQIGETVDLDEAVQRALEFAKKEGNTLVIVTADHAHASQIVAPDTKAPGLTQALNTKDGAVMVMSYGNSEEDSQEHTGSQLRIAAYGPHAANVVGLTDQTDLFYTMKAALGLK",
  "assay_type": "biochemical",
  "details": "pH 8",
  "data": [
    {"compound": "O=S(=O)(O)O", "note": "[sulfate]", "values": [
      {"measurement": "differential binding energy between Pi and sulfate binding", "value": "at least 8.5 kcal/mol"},
      {"measurement": "inhibition of AP by sulfate", "value": "No significant inhibition"}
    ]}
  ]
}
